Assay results from patent publication US20250346593A1, “IMIDAZO(1,2-1)PYRIDINE DERIVATIVES AS RIPK2 INHIBITORS” (Interline Therapeutics, Inc., priority 2022, published 2025).
Read-outs that look alike come from different tables or passages of the source.

What was measured:
[1] = target: GST-RIPK2 fusion protein (human RIPK2 amino acids 1-310) (Homo sapiens (Human), UniProt O43353); test: RIPK2 binding competition assay (TR-FRET, Tracer 199)
[2] = system: NF-κB pathway (SEAP) in THP1-Dual cells; test: THP-1 Dual cell SEAP assay (L18-MDP stimulated); assay type: cell-based; details: Homo sapiens, THP1-Dual, read-out: NFkB THP1 IC50
[3] = read-out: RIPK2 IC50, RIPK2 binding competition assay

Sequence of GST-RIPK2 fusion protein (human RIPK2 amino acids 1-310) (O43353 1-310): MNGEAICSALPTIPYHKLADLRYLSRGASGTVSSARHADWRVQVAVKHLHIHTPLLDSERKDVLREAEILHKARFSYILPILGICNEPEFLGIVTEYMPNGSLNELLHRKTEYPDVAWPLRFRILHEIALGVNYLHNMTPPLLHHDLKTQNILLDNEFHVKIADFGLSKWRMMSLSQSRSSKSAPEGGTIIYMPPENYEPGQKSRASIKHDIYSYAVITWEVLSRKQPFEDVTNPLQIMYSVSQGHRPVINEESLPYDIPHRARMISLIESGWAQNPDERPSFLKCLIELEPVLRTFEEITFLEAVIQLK

Row | Compound | IC50 [1, 3] | IC50 [2] | IC50 [1]
1 | CNc1cncc(-c2cnc3cc(OC)c(S(=O)(=O)C(C)(C)C)cn23)c1 [Example 34, 5-(6-(tert-butylsulfonyl)-7-methoxyimidazo[1,2-a]pyridin-3-yl)-N-methylpyridin-3-amine] | > 20 nM | > 1000 nM | 
2 | COc1cc2ncc(-c3cc(N)c(C)c(F)c3)n2cc1S(=O)(=O)C(C)(C)C [Example 35, 5-(6-(tert-butylsulfonyl)-7-methoxyimidazo[1,2-a]pyridin-3-yl)-3-fluoro-2-methylaniline] | > 20 nM | > 1000 nM | 
3 | COc1cc2ncc(-c3cccc(N)c3)n2cc1S(=O)(=O)C(C)(C)C [Example 36, 3-(6-(tert-butylsulfonyl)-7-methoxyimidazo[1,2-a]pyridin-3-yl)aniline] | > 20 nM | > 1000 nM | 
4 | COc1cc2ncc(-c3cc(N)cc(S(C)(=O)=O)c3)n2cc1S(=O)(=O)C(C)(C)C [Example 37, 3-(6-(tert-butylsulfonyl)-7-methoxyimidazo[1,2-a]pyridin-3-yl)-5-(methylsulfonyl)aniline] | > 20 nM | > 1000 nM | 
5 | COc1cc2ncc(-c3cc(F)cc(N)c3F)n2cc1S(=O)(=O)C(C)(C)C [Example 38, 3-(6-(tert-butylsulfonyl)-7-methoxyimidazo[1,2-a]pyridin-3-yl)-2,5-difluoroaniline] |  | 50 to 250 nM | 1 to 2.5 nM
6 | COc1cc2ncc(-c3ccc(OC(F)F)c(N)c3)n2cc1S(=O)(=O)C(C)(C)C [Example 39, 5-(6-(tert-butylsulfonyl)-7-methoxyimidazo[1,2-a]pyridin-3-yl)-2-(difluoromethoxy)aniline] |  | 50 to 250 nM | 2.5 to 20 nM
7 | COc1cc2ncc(-c3cc(F)c(N)c(N)c3F)n2cc1S(=O)(=O)C(C)(C)C [Example 40, 4-(6-(tert-butylsulfonyl)-7-methoxyimidazo[1,2-a]pyridin-3-yl)-3,6-difluorobenzene-1,2-diamine] |  | 250 to 1000 nM | 2.5 to 20 nM
8 | COc1cc2ncc(-c3cc(N)cc(C#N)c3)n2cc1S(=O)(=O)C(C)(C)C [Example 41, 3-amino-5-(6-(tert-butylsulfonyl)-7-methoxyimidazo[1,2-a]pyridin-3-yl)benzonitrile] |  | 50 to 250 nM | 2.5 to 20 nM
9 | COc1cc2ncc(-c3cc(N)cc(OC(F)F)c3)n2cc1S(=O)(=O)C(C)(C)C [Example 42, 3-(6-(tert-butylsulfonyl)-7-methoxyimidazo[1,2-a]pyridin-3-yl)-5-(difluoromethoxy)aniline] |  | 250 to 1000 nM | 2.5 to 20 nM
10 | COc1cc2ncc(-c3cc(N)c(F)c(OC)c3)n2cc1S(=O)(=O)C(C)(C)C [Example 43, 5-(6-(tert-butylsulfonyl)-7-methoxyimidazo[1,2-a]pyridin-3-yl)-2-fluoro-3-methoxyaniline] |  | 50 to 250 nM | 2.5 to 20 nM
11 | COc1cc2ncc(-c3cc(N)c(F)c(F)c3)n2cc1S(=O)(=O)C(C)(C)C [Example 44, 5-(6-(tert-butylsulfonyl)-7-methoxyimidazo[1,2-a]pyridin-3-yl)-2,3-difluoroaniline] |  | 50 to 250 nM | 2.5 to 20 nM
12 | COc1ccn2c(-c3cc(F)nc(F)c3)cnc2c1 [Example 45, 3-(2,6-difluoropyridin-4-yl)-7-methoxyimidazo[1,2-a]pyridine] | > 20 nM | > 1000 nM | 
13 | COc1cc(N)cc(-c2cnc3cc(OC)c(S(=O)(=O)C(C)(C)C)cn23)c1 [Example 46, 3-(6-(tert-butylsulfonyl)-7-methoxyimidazo[1,2-a]pyridin-3-yl)-5-methoxyaniline] |  | 50 to 250 nM | 2.5 to 20 nM
14 | COc1cc2ncc(-c3cc(N)c(OC)c(OC)c3)n2cc1S(=O)(=O)C(C)(C)C [Example 47, 5-(6-(tert-butylsulfonyl)-7-methoxyimidazo[1,2-a]pyridin-3-yl)-2,3-dimethoxyaniline] |  | > 1000 nM | 2.5 to 20 nM
15 | COc1cc2ncc(-c3cc(C)c(F)c(N)c3)n2cc1S(=O)(=O)C(C)(C)C [Example 48, 5-(6-(tert-butylsulfonyl)-7-methoxyimidazo[1,2-a]pyridin-3-yl)-2-fluoro-3-methylaniline] | > 20 nM | > 1000 nM | 
16 | COCc1cc(N)cc(-c2cnc3cc(OC)c(S(=O)(=O)C(C)(C)C)cn23)c1 [Example 49, 3-(6-(tert-butylsulfonyl)-7-methoxyimidazo[1,2-a]pyridin-3-yl)-5-(methoxymethyl)aniline] | > 20 nM | 250 to 1000 nM | 
17 | COc1cc2ncc(-c3cnc(OC(F)F)c(N)c3)n2cc1S(=O)(=O)C(C)(C)C [Example 50, 5-(6-(tert-butylsulfonyl)-7-methoxyimidazo[1,2-a]pyridin-3-yl)-2-(difluoromethoxy)pyridin-3-amine] | > 20 nM | > 1000 nM | 
18 | COc1cc2ncc(-c3cc(N)c(OC)c(C#N)c3)n2cc1S(=O)(=O)C(C)(C)C [Example 51, 3-amino-5-(6-(tert-butylsulfonyl)-7-methoxyimidazo[1,2-a]pyridin-3-yl)-2-methoxybenzonitrile] | > 20 nM | > 1000 nM | 

Row | Compound | IC50 [1, 3] | IC50 [2] | IC50 [1]
19 | COc1cc2ncc(-c3cc(F)c(OC)c(N)c3F)n2cc1S(=O)(=O)C(C)(C)C [Example 52, 3-(6-(tert-butylsulfonyl)-7-methoxyimidazo[1,2-a]pyridin-3-yl)-2,5-difluoro-6-methoxyaniline] |  | 250 to 1000 nM | 2.5 to 20 nM
20 | COc1cc(-c2cnc3cc(OC)c(S(=O)(=O)C(C)(C)C)cn23)cc(N)n1 [Example 53, 4-(6-(tert-butylsulfonyl)-7-methoxyimidazo[1,2-a]pyridin-3-yl)-6-methoxypyridin-2-amine] |  | 50 to 250 nM | 2.5 to 20 nM
21 | COc1cc2ncc(-c3cnc(OC)c(N)c3)n2cc1S(=O)(=O)C(C)(C)C [Example 54, 5-(6-(tert-butylsulfonyl)-7-methoxyimidazo[1,2-a]pyridin-3-yl)-2-methoxypyridin-3-amine] | > 20 nM | > 1000 nM | 
22 | COc1cc2ncc(-c3cc(C)c(OC)c(Cl)n3)n2cc1S(=O)(=O)C(C)(C)C [Example 55, 6-(tert-butylsulfonyl)-3-(6-chloro-5-methoxy-4-methylpyridin-2-yl)-7-methoxyimidazo[1,2-a]pyridine] | > 20 nM | > 1000 nM | 
23 | COc1cc2ncc(-c3cc(F)c(OC)c(C#N)c3)n2cc1S(=O)(=O)C(C)(C)C [Example 56, 5-(6-(tert-butylsulfonyl)-7-methoxyimidazo[1,2-a]pyridin-3-yl)-3-fluoro-2-methoxybenzonitrile] | > 20 nM | > 1000 nM | 
24 | COc1cc2ncc(-c3cc(F)c(OC)c(F)c3)n2cc1S(=O)(=O)C(C)(C)C [Example 57, 6-(tert-butylsulfonyl)-3-(3,5-difluoro-4-methoxyphenyl)-7-methoxyimidazo[1,2-a]pyridine] | > 20 nM | > 1000 nM | 
25 | COc1cc2ncc(-c3cc(F)c(OC)c(OC)c3)n2cc1S(=O)(=O)C(C)(C)C [Example 58, 6-(tert-butylsulfonyl)-3-(3-fluoro-4,5-dimethoxyphenyl)-7-methoxyimidazo[1,2-a]pyridine] |  | > 1000 nM | 2.5 to 20 nM
26 | COc1cc2ncc(-c3cc(F)c(OC)c(CCO)c3)n2cc1S(=O)(=O)C(C)(C)C [Example 59, 2-(5-(6-(tert-butylsulfonyl)-7-methoxyimidazo[1,2-a]pyridin-3-yl)-3-fluoro-2-methoxyphenyl)ethan-1-ol] |  | 250 to 1000 nM | 2.5 to 20 nM
27 | COc1cc2ncc(-c3csnc3OC)n2cc1S(=O)(=O)C(C)(C)C [Example 60, 4-(6-(tert-butylsulfonyl)-7-methoxyimidazo[1,2-a]pyridin-3-yl)-3-methoxyisothiazole] |  | > 1000 nM | 2.5 to 20 nM
28 | COc1cc2ncc(-c3cc(F)cc(F)n3)n2cc1S(=O)(=O)C(C)(C)C [Example 61, 6-(tert-butylsulfonyl)-3-(4,6-difluoropyridin-2-yl)-7-methoxyimidazo[1,2-a]pyridine] | > 20 nM | 250 to 1000 nM | 
29 | CCOc1ncc(-c2cnc3cc(OC)c(S(=O)(=O)C(C)(C)C)cn23)s1 [Example 62, 5-(6-(tert-butylsulfonyl)-7-methoxyimidazo[1,2-a]pyridin-3-yl)-2-ethoxythiazole] | > 20 nM | > 1000 nM | 
30 | COc1cc2ncc(-c3cc(N)c(OCCO)c(F)c3)n2cc1S(=O)(=O)C(C)(C)C [Example 64, 2-(2-amino-4-(6-(tert-butylsulfonyl)-7-methoxyimidazo[1,2-a]pyridin-3-yl)-6-fluorophenoxy)ethan-1-ol] |  | 50 to 250 nM | 2.5 to 20 nM
31 | COc1cc2ncc(-c3cc(N)c(OC(F)F)c(F)c3)n2cc1S(=O)(=O)C(C)(C)C [Example 65, 5-(6-(tert-butylsulfonyl)-7-methoxyimidazo[1,2-a]pyridin-3-yl)-2-(difluoromethoxy)-3-fluoroaniline] |  | 50 to 250 nM | 1 to 2.5 nM
32 | CCOc1c(N)cc(-c2cnc3cc(OC)c(S(=O)(=O)C(C)(C)C)cn23)cc1F [Example 66, 5-(6-(tert-butylsulfonyl)-7-methoxyimidazo[1,2-a]pyridin-3-yl)-2-ethoxy-3-fluoroaniline] | > 20 nM | > 1000 nM | 
33 | COc1cc2ncc(-c3ccc(N4CCCC4=O)nc3)n2cc1S(=O)(=O)C(C)(C)C [Example 67, 1-(5-(6-(tert-butylsulfonyl)-7-methoxyimidazo[1,2-a]pyridin-3-yl)pyridin-2-yl)pyrrolidin-2-one] | > 20 nM | > 1000 nM | 
34 | COc1cc2ncc(-c3cnc(N)c(C)c3)n2cc1S(=O)(=O)C(C)(C)C [Example 68, 5-(6-(tert-butylsulfonyl)-7-methoxyimidazo[1,2-a]pyridin-3-yl)-3-methylpyridin-2-amine] | > 20 nM | > 1000 nM | 
35 | CNc1ccc(-c2cnc3cc(OC)c(S(=O)(=O)C(C)(C)C)cn23)cn1 [Example 69, 5-(6-(tert-butylsulfonyl)-7-methoxyimidazo[1,2-a]pyridin-3-yl)-N-methylpyridin-2-amine] | > 20 nM | > 1000 nM | 
